Results on 22 compounds are retold here after PMC10268634 (ACS Omega, 2023).

One assay is described as follows: DPPH radical scavenging. As to conditions: for IC50: read-out: DPPH (IC50 value in μM). In general terms: Loss of DPPH colour is used to gauge radical scavenging.
A further assay has as its target T1, α-amylase (Homo sapiens, UniProt P04746).
T1 sequence (P04746 16-511): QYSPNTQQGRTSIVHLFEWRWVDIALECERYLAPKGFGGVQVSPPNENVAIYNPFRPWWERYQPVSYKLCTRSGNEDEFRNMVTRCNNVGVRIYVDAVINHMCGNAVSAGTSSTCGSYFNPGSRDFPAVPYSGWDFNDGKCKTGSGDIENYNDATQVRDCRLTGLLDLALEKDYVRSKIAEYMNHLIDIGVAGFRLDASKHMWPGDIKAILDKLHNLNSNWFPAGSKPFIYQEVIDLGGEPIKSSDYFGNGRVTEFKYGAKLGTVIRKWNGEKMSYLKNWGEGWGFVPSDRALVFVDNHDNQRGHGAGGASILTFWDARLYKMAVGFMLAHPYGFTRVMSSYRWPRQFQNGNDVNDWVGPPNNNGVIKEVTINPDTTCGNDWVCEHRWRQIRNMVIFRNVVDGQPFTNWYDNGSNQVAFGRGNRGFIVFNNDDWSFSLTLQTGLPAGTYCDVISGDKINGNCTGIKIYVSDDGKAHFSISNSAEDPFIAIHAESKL
Description: biochemical.

As to `CC(=O)N1N=C(c2ccc(O)cc2)CC1c1cccc([N+](=O)[O-])c1` (stereo not drawn) [Compound 9, 1-(3-(4-Hydroxyphenyl)-5-(3-nitrophenyl)-4,5-dihydro-1H-pyrazol-1-yl)ethanone], the results for the half-maximal inhibitory concentration (IC50) in “DPPH radical scavenging” and on α-amylase were 161 µM and 632 µM, respectively.

On to `CC(=O)N1N=C(c2ccc(Cl)cc2)CC1c1ccccc1` (stereo not drawn) [Compound 19, 1-(3-(4-Chlorophenyl)-5-phenyl-4,5-dihydro-1H-pyrazol-1-yl)ethanone], for which the half-maximal inhibitory concentration (IC50) in “DPPH radical scavenging” was determined as 172 µM.

As to `CC(=O)N1N=C(c2ccccc2)CC1c1ccccc1O` (stereo not drawn) [Compound 1, 1-(5-(2-Hydroxyphenyl)-3-phenyl-4,5-dihydro-1H-pyrazol-1-yl)ethanone], the “DPPH (IC50 value in μM)” value in “DPPH radical scavenging” is given as “potential antioxidant activity”. Also, the IC50 in “DPPH radical scavenging” was determined as 84.2 µM; against α-amylase it was 188 µM.

As for `CC(=O)N1N=C(c2ccccc2)CC1c1ccco1` (stereo not drawn) [Compound 2, 1-(5-(Furan-2-yl)-3-phenyl-4,5-dihydro-1H-pyrazol-1-yl)ethanone], in the assay “DPPH radical scavenging”, the “DPPH (IC50 value in μM)” value is recorded as “potential antioxidant activity” and the IC50 came out at 85.1 µM. For the same compound, inhibition against α-amylase was half-maximal at 301 µM (IC50).

`CC(=O)N1N=C(c2ccc(Cl)cc2)CC1c1cccc(O)c1` (stereo not drawn) [Compound 17, 1-(3-(4-Chlorophenyl)-5-(3-hydroxyphenyl)-4,5-dihydropyrazol-1-yl)ethanone]: the values for the concentration for half-maximal inhibition (IC50) in “DPPH radical scavenging” and on α-amylase were 160 µM and 315 µM, respectively.

`CC(=O)N1N=C(c2ccc(Cl)cc2)CC1c1ccc(C)cc1` (stereo not drawn) [Compound 14, 1-(3-(4-Chlorophenyl)-5-(p-tolyl)-4,5-dihydro-1H-pyrazol-1-yl)ethanone]: in the assay “DPPH radical scavenging”, the IC50 was 179 µM.

As to `CC(=O)N1N=C(c2ccc(O)cc2)CC1c1ccc(N(C)C)cc1` (stereo not drawn) [Compound 10, 1-(5-(4-(Dimethylamino)phenyl)-3-(4-hydroxyphenyl)-4,5-dihydropyrazol-1-yl)ethanone], in the assay “DPPH radical scavenging”, the “DPPH (IC50 value in μM)” value is recorded as “potential antioxidant activity” and the IC50 worked out at 41.1 µM. Besides, 388 µM corresponded to half-maximal inhibition against α-amylase (IC50).

Turning to `COc1ccc(C2CC(c3ccc(Cl)cc3)=NN2C(C)=O)cc1` (stereo not drawn) [Compound 13, 1-(3-(4-Chlorophenyl)-5-(4-methoxyphenyl)-4,5-dihydro-1H-pyrazol-1-yl)ethanone], in “DPPH radical scavenging”, the “DPPH (IC50 value in μM)” value was “potential antioxidant activity” and the IC50 was determined as 131 µM.

Consider `COc1ccc(C2CC(c3ccc(Cl)cc3)=NN2C(C)=O)cc1O` (stereo not drawn) [Compound 16, 1-(3-(4-Chlorophenyl)-5-(3-hydroxy-4-methoxyphenyl)-4,5-dihydropyrazol-1-yl)ethanone], for which the IC50 worked out at 56.3 µM in “DPPH radical scavenging” and 62.5 µM against α-amylase.

For `CC(=O)N1N=C(c2ccc(Cl)cc2)CC1c1ccccn1` (stereo not drawn) [Compound 18, 1-(3-(4-Chlorophenyl)-5-(pyridin-2-yl)-4,5-dihydro-1H-pyrazol-1-yl)ethanone], the concentration for half-maximal inhibition (IC50) amounted to 199 µM in “DPPH radical scavenging” and 281 µM on α-amylase.

Turning to `COc1ccc(C2CC(c3ccc(O)cc3)=NN2C(C)=O)cc1` (stereo not drawn) [Compound 11, 1-(3-(4-Hydroxyphenyl)-5-(4-methoxyphenyl)-4,5-dihydro-1H-pyrazol-1-yl)ethanone], in the assay “DPPH radical scavenging”, the “DPPH (IC50 value in μM)” value was “potential antioxidant activity” and the IC50 was 53.5 µM. Also, the IC50 on α-amylase is 0.551 µM.

Turning to `CC(=O)N1N=C(c2ccc(O)cc2)CC1c1ccccn1` (stereo not drawn) [Compound 7, 1-(3-(4-Hydroxyphenyl)-5-(pyridin-2-yl)-4,5-dihydro-1H-pyrazol-1-yl)ethanone], in the assay “DPPH radical scavenging”, the “DPPH (IC50 value in μM)” value is “potential antioxidant activity”. Also, the figures for the IC50 in the assay “DPPH radical scavenging” and against α-amylase were 69 µM and 196 µM, respectively.

Consider `CC(=O)N1N=C(c2ccc(Cl)cc2)CC1c1cccc([N+](=O)[O-])c1` (stereo not drawn) [Compound 22, 1-(3-(4-Chlorophenyl)-5-(3-nitrophenyl)-4,5-dihydro-1H-pyrazol-1-yl)ethanone], for which the IC50 is 220 µM in the assay “DPPH radical scavenging” and 61.5 µM at α-amylase.

Regarding `CC(=O)N1N=C(c2ccccc2)CC1c1cccc([N+](=O)[O-])c1` (stereo not drawn) [Compound 3, 1-(5-(3-Nitrophenyl)-3-phenyl-4,5-dihydro-1H-pyrazol-1-yl)ethanone], the IC50 turned out to be 205 µM in “DPPH radical scavenging” and 604 µM against α-amylase.

Regarding `CC(=O)N1N=C(c2ccc(Cl)cc2)CC1c1cccs1` (stereo not drawn) [Compound 15, 1-(3-(4-Chlorophenyl)-5-(thiophen-2-yl)-4,5-dihydro-1H-pyrazol-1-yl)ethanone], the IC50 was determined as 383 µM in the assay “DPPH radical scavenging” and 425 µM on α-amylase.

On to `CC(=O)N1N=C(c2ccccc2)CC1c1ccc(C)cc1` (stereo not drawn) [Compound 5, 1-(3-Phenyl-5-(p-tolyl)-4,5-dihydro-1H-pyrazol-1-yl)ethanone], for which, in “DPPH radical scavenging”, the “DPPH (IC50 value in μM)” value is on record as “potential antioxidant activity” and the IC50 was determined as 30 µM. Besides, at α-amylase, the IC50 stood at 35.5 µM.

In the case of `CC(=O)N1N=C(c2ccc(Cl)cc2)CC1c1ccccc1O` (stereo not drawn) [Compound 20, 1-(3-(4-Chlorophenyl)-5-(2-hydroxyphenyl)-4,5-dihydro-1H-pyrazol-1-yl)ethanone], the “DPPH (IC50 value in μM)” value in the assay “DPPH radical scavenging” was “potential antioxidant activity”. In addition, the 50% inhibitory concentration (IC50) in “DPPH radical scavenging” was found to be 99.6 µM; against α-amylase, 590 µM.

With `CC(=O)N1N=C(c2ccc(Cl)cc2)CC1c1ccco1` (stereo not drawn) [Compound 21, 1-(3-(4-Chlorophenyl)-5-(furan-2-yl)-4,5-dihydro-1H-pyrazol-1-yl)ethanone], the half-maximal inhibitory concentration (IC50) in “DPPH radical scavenging” was found to be 580 µM; against α-amylase, 262 µM.

With `CC(=O)N1N=C(c2ccc(O)cc2)CC1c1ccco1` (stereo not drawn) [Compound 8, 1-(5-(Furan-2-yl)-3-(4-hydroxyphenyl)-4,5-dihydro-1H-pyrazol-1-yl)ethanone], in “DPPH radical scavenging”, the “DPPH (IC50 value in μM)” value is listed as “potential antioxidant activity” and the IC50 was found to be 106 µM. The compound also yielded an IC50 at α-amylase of 1.07 µM.

On to `CC(=O)N1N=C(c2ccccc2)CC1c1ccccn1` (stereo not drawn) [Compound 4, 1-(3-Phenyl-5-(pyridin-2-yl)-4,5-dihydro-1H-pyrazol-1-yl)ethanone], for which the results for the IC50 in the assay “DPPH radical scavenging” and at α-amylase were 914 µM and 663 µM, respectively.

For the compound `CC(=O)N1N=C(c2ccc(O)cc2)CC1c1ccc(C)cc1` (stereo not drawn) [Compound 12, 1-(3-(4-Hydroxyphenyl)-5-(p-tolyl)-4,5-dihydro-1H-pyrazol-1-yl)ethanone], in the assay “DPPH radical scavenging”, the “DPPH (IC50 value in μM)” value was “potential antioxidant activity” and the IC50 is 151 µM. For the same compound, at α-amylase, the concentration for half-maximal inhibition (IC50) is 400 µM.

In the case of `COc1ccc(C2=NN(C(C)=O)C(c3ccco3)C2)cc1` (stereo not drawn) [Compound 6, 1-(5-(Furan-2-yl)-3-(4-methoxyphenyl)-4,5-dihydro-1H-pyrazol-1-yl)ethanone], the figures for the IC50 in the assay “DPPH radical scavenging” and against α-amylase were 554 µM and 811 µM, respectively.

Usually IC50 stands for the concentration needed to halve the response being measured.
